Like-named read-outs stand apart in the source and are kept apart here.
Assays:
[1] = Hydrolysis Assay - Condition 1 (SGF); format: physicochemical; details: SGF with pepsin pH 1.5, 37° C., 0.5 mM
Experimental: 50 μL of compound (10 mM) in DMSO was diluted into 950 μL of Simulated Gastric Fluid (SGF) with pepsin (pH 1.5) to a final concentration of 0.5 mM. The hydrolysis kinetics were conducted at 37° C. and measured by LCMS at a certain time interval.
(§1) The corresponding LCMS chromatogram were recorded and the conversions were calculated by integration of each peak.
(§2) • 1) LCMS spectra were obtained using Agilent 1200G1956A or SHIMADZU LCMS-2020. Standard LCMS conditions were as follows (running time 1.55 minutes): • Acidic condition: Mobile Phase A: 0.0375% TFA in water (v/v). Mobile Phase B: 0.01875% TFA in acetonitrile (v/v); Column: Kinetex EVO C18 30*2.1 mm, 5 μm. • Basic condition: Mobile Phase A: 0.025% NH3·H2O in water (v/v). Mobile Phase B: Acetonitrile; Column: Kinetex EVO C18 2.1×30 mm, 5 μm. • 2) Conversion (%)=peak area 1/(peak area 1+peak area 2)*100%, peak area 1 is the integration of hydrolyzed product, peak area 2 is the integration of starting material.

[2] = Hydrolysis Assay - Condition 2 (DI Water); format: physicochemical; details: 25° C., 0.5 mM
Experimental: 50 μL of compound (10 mM) in DMSO was diluted into 950 μL of DI water to a final concentration of 0.5 mM. The hydrolysis kinetics were conducted at 25° C. and measured by LCMS at a certain time interval.
as §1, §2

[3] = format: in vitro ADME, mouse; details: 5 μM, 37° C.; for Mouse Plasma Prodrug (%): prodrug remaining; for Mouse Plasma Metabolite (%): metabolite (mesembrine) accumulated
Experimental: (§3) Each test was carried out in duplicate for each time point; 0 min, 15 min, 30 min, 60 min, 120, 240 min. […]

[4] = format: in vitro ADME, human; details: 5 μM, 37° C.; for Human Plasma Prodrug (%): prodrug remaining; for Human Plasma Metabolite (%): metabolite (mesembrine) accumulated
Experimental: as §3

[5] = Plasma Stability Assay (Example A3), rat plasma; format: in vitro ADME; details: prodrug remaining, 10 μM, 37° C.
Source text: (§4) The data is represented in the table below.

[6] = Plasma Stability Assay (Example A3), human plasma; format: in vitro ADME; details: prodrug remaining, 10 μM, 37° C.
Source text: as §4

Compound	Condition 1 Conversion (%) ([1]; 1 min)	Condition 1 Conversion (%) ([1]; 5 min)	Condition 1 Conversion (%) ([1]; 30 min)	Condition 1 Conversion (%) ([1]; 1 h)	Condition 1 Conversion (%) ([1]; 4 h)	Condition 1 Conversion (%) ([1]; 24 h)	Condition 2 Conversion (%) ([2]; 1 min)	Condition 2 Conversion (%) ([2]; 5 min)	Mouse Plasma Prodrug (%) ([3]; 0 min)	Mouse Plasma Prodrug (%) ([3]; 15 min)	Mouse Plasma Prodrug (%) ([3]; 30 min)	Mouse Plasma Prodrug (%) ([3]; 60 min)	Mouse Plasma Prodrug (%) ([3]; 120 min)	Mouse Plasma Prodrug (%) ([3]; 240 min)	Human Plasma Prodrug (%) ([4]; 0 min)	Human Plasma Prodrug (%) ([4]; 15 min)	Human Plasma Prodrug (%) ([4]; 30 min)	Human Plasma Prodrug (%) ([4]; 60 min)	Human Plasma Prodrug (%) ([4]; 120 min)	Human Plasma Prodrug (%) ([4]; 240 min)	further results
COc1ccc([C@@]23CCC(OC(=O)N4CCN(C)CC4)=C[C@@H]2N(C)CC3)cc1OC [Compound 327, [(3aS,7aS)-3a-(3,4-dimethoxyphenyl)-1-methyl-3,4,5,7a-tetrahydro-2H-indol-6-yl]4-methylpiperazine-1-carboxylate]	0	0	0	0	0	0	0	0	100	>99	>99	>99	>99	>99	100	>99	98.9	>99	>99	94.4	Condition 2 Conversion (%) ([2]; 30 min): 0%; Condition 2 Conversion (%) ([2]; 1 h): 0%; Condition 2 Conversion (%) ([2]; 4 h): 0%; Condition 2 Conversion (%) ([2]; 24 h): 0%
COc1ccc([C@@]23CCC(OC(=O)N(C)C)=C[C@@H]2N(C)CC3)cc1OC [Compound 324, [(3aS,7aS)-3a-(3,4-dimethoxyphenyl)-1-methyl-3,4,5,7a-tetrahydro-2H-indol-6-yl] N,N-dimethylcarbamate]	0	0	0	0	0	0	0	0	100.0	97.4	94.4	94.9	92.6	88.9	100.0	98.2	98.7	>99	>99	96.5	Condition 2 Conversion (%) ([2]; 30 min): 0%; Condition 2 Conversion (%) ([2]; 1 h): 0%; Condition 2 Conversion (%) ([2]; 4 h): 0%; Condition 2 Conversion (%) ([2]; 24 h): 0%
COc1ccc([C@@]23CCC(OP(=O)(Oc4ccccc4)Oc4ccccc4)=C[C@@H]2N(C)CC3)cc1OC [Compound 320, [(3aS,7aS)-3a-(3,4-dimethoxyphenyl)-1-methyl-3,4,5,7a-tetrahydro-2H-indol-6-yl]diphenyl phosphate]	–	–	–	–	–	–	–	–	100	58.5	46.5	30.7	19.4	11.7	100	95.7	98.5	95.7	98.2	95.3	Mouse Plasma Metabolite (%) ([3]; 0 min): 11.8%; Mouse Plasma Metabolite (%) ([3]; 15 min): 15.9%; Mouse Plasma Metabolite (%) ([3]; 30 min): 16.9%; Mouse Plasma Metabolite (%) ([3]; 60 min): 18.6%; Mouse Plasma Metabolite (%) ([3]; 120 min): 19.1%; Mouse Plasma Metabolite (%) ([3]; 240 min): 18.9%; Human Plasma Metabolite (%) ([4]; 0 min): 7.6%; Human Plasma Metabolite (%) ([4]; 15 min): 8.0%; Human Plasma Metabolite (%) ([4]; 30 min): 8.5%; Human Plasma Metabolite (%) ([4]; 60 min): 8.6%; Human Plasma Metabolite (%) ([4]; 120 min): 9.4%; Human Plasma Metabolite (%) ([4]; 240 min): 10.4%
COc1ccc([C@@]23CCC(OP(=O)(O)O)=C[C@@H]2N(C)CC3)cc1OC [Compound 359, [(3aS,7aS)-3a-(3,4-dimethoxyphenyl)-1-methyl-3,4,5,7a-tetrahydro-2H-indol-6-yl] dihydrogen phosphate]	–	–	–	–	–	–	–	–	100	>99	82.7	79.0	50.7	59.1	100	69.0	65.1	50.4	32.8	25.6	Mouse Plasma Metabolite (%) ([3]; 0 min): 0.0%; Mouse Plasma Metabolite (%) ([3]; 15 min): 0.0%; Mouse Plasma Metabolite (%) ([3]; 30 min): 0.0%; Mouse Plasma Metabolite (%) ([3]; 60 min): 0.0%; Mouse Plasma Metabolite (%) ([3]; 120 min): 0.0%; Mouse Plasma Metabolite (%) ([3]; 240 min): 0.0%; Human Plasma Metabolite (%) ([4]; 0 min): 0.0%; Human Plasma Metabolite (%) ([4]; 15 min): 0.0%; Human Plasma Metabolite (%) ([4]; 30 min): 0.0%; Human Plasma Metabolite (%) ([4]; 60 min): 0.0%; Human Plasma Metabolite (%) ([4]; 120 min): 15.7%; Human Plasma Metabolite (%) ([4]; 240 min): 23.0%
COc1ccc([C@@]23CCC(OP(=O)(O)OCOC(=O)OC(C)C)=C[C@@H]2N(C)CC3)cc1OC [Compound 410, [[(3aS,7aS)-3a-(3,4-dimethoxyphenyl)-1-methyl-3,4,5,7a-tetrahydro-2H-indol-6-yl]oxy-hydroxy-phosphoryl]oxymethyl isopropyl carbonate]	–	–	–	–	–	–	–	–	–	–	–	–	–	–	–	–	–	–	–	–	Rat Plasma Prodrug (%) ([5]; 0 min): 100.0%; Rat Plasma Prodrug (%) ([5]; 10 min): 63.0%; Rat Plasma Prodrug (%) ([5]; 30 min): 25.4%; Rat Plasma Prodrug (%) ([5]; 60 min): 7.1%; Rat Plasma Prodrug (%) ([5]; 120 min): 0.52%; Rat Plasma Prodrug (%) ([5]; 240 min): 0.01%; Human Plasma Prodrug (%) ([6]; 0 min): 100.0%; Human Plasma Prodrug (%) ([6]; 10 min): 96.3%; Human Plasma Prodrug (%) ([6]; 30 min): 98.8%; Human Plasma Prodrug (%) ([6]; 60 min): 92.7%; Human Plasma Prodrug (%) ([6]; 120 min): 88.2%; Human Plasma Prodrug (%) ([6]; 240 min): 75.5%
CCN(C)C(=O)OC1=C[C@@H]2N(C)CC[C@]2(c2ccc(OC)c(OC)c2)CC1 [Compound 326, [(3aS,7aS)-3a-(3,4-dimethoxyphenyl)-1-methyl-3,4,5,7a-tetrahydro-2H-indol-6-yl] N-ethyl-N-methyl-carbamate]	0	0	0	0	0	0	0	0	100.0	>99	96.6	>99	>99	98.5	100.0	98.2	99.9	98.4	>99	93.9	Condition 2 Conversion (%) ([2]; 30 min): 0%; Condition 2 Conversion (%) ([2]; 1 h): 0%; Condition 2 Conversion (%) ([2]; 4 h): 0%; Condition 2 Conversion (%) ([2]; 24 h): 0%

Reference: patent US20240408119A1, “DELIVERY OF THERAPEUTIC ALKALOID COMPOUNDS” (priority 2022, published 2024)
